Results on four compounds are retold here after patent EP1510220B1 (priority 1993, dated 1994).

Like-named read-outs stand apart in the source and are kept apart here. Ends that are not written are not given here.

One data set concerns Quiescent EX cells. Briefly: Stimulation of DNA synthesis by mitogens in quiescent EX cells. Format: cell-based, human. Conditions: [3H]thymidine 16-32 h after stimulation, vs serum-free control; 20% FCS, IGF-1 25 ng/ml, EGF and bFGF 100 ng/ml, TGF-beta 10 ng/ml, AII and ET-1 100 nM. On the procedure:
Quiescent EX cells were then exposed to various mitogens, and stimulation of DNA synthesis was determined by incorporation of [^3H]thymidine 16-32 h after stimulation. DNA synthesis was stimulated by 20% FCS by 8.0±1.5 fold, compared to control cells that remained in serum-free D-MEM throughout. PDGF-BB and PDGF-AA caused a ≈ 3.0 fold stimulation of DNA synthesis. Insulin-like growth factor (IGF-1; 25 ng/ml) provided a 1.2 fold stimulation.

A further data set deals with Quiescent ED cells. Briefly: Stimulation of DNA synthesis by mitogens in quiescent ED cells. The data set is classed as cell-based, human. To be noted: [3H]thymidine 16-40 h after stimulation, vs serum-free control; 20% FCS. The procedure:
Quiescent ED cells were exposed to various mitogens, and stimulation of DNA synthesis was determined by [^3H]thymidine incorporation 16-40 h after stimulation. DNA synthesis was stimulated by 20% FCS by 25±6 fold, compared to control cells that remained in serum-free D-MEM throughout. PDGF-BB stimulated ≈3.0 fold, but PDGF-AA stimulated only 2.0 fold.

Data set [1] has as its system B054 cells (baboon smooth muscle cells). Briefly: cells. The data set is classed as cell-based. Conditions: for minimal effective concentration: Papio anubis.
Data set [2] deals with Vascular smooth muscle cells.
Data set [3] concerns B054 cells (baboon smooth muscle cells). Briefly: cells. The data set is classed as cell-based. To be noted: Papio anubis, read-out: minimum effective dose (MED), protein synthesis assay.

For the compound “endothelin-1 (CSCSSLMDKECVYFCHLDIIW; ends and bridges not checked; cysteine pairing not given here; UniProt P05305 53-73, looked up) [ET-1]”, the “stimulation of DNA synthesis” value in the data set on Quiescent EX cells is reported as “did not significantly stimulate DNA synthesis”; in the data set on Quiescent ED cells, “did not stimulate DNA synthesis”.

Take `CC[C@H](C)[C@H](NC(=O)[C@H](Cc1ccc(O)cc1)NC(=O)[C@@H](NC(=O)[C@H](CCCNC(=N)N)NC(=O)[C@@H](N)CC(=O)O)C(C)C)C(=O)N[C@@H](Cc1cnc[nH]1)C(=O)N1CCC[C@H]1C(=O)N[C@@H](Cc1ccccc1)C(=O)O` [AII, angiotensin II]: the “stimulation of DNA synthesis” value with Quiescent EX cells is reported as “did not significantly stimulate DNA synthesis”; in the data set with Quiescent ED cells it was “did not stimulate DNA synthesis”.

For `CC(=O)O[C@@H]1/C=C\[C@@](C)(O)C(=O)[C@@H](C)C/C=C\[C@H]2[C@H](O)C(C)=C(C)[C@H]3C(Cc4ccccc4)NC(=O)[C@]132` (stereo partly shown) [cytochalasin C], in data set [1], the “minimum effective dose (MED), DNA synthesis assay” value amounted to 0.01 µg/mL.

As for `CN[C@@H]1C[C@H]2O[C@@](C)([C@@H]1OC)n1c3ccccc3c3c4c(c5c6ccccc6n2c5c31)C(=O)NC4` [staurosporin], the cytotoxicity grade in data set [2] came out at 2. For the same compound, the minimal effective concentration stood at 0.001 µg/mL in data set [1] (5 min, read-out: minimum effective dose (MED), DNA assay); 0.001 µg/mL in data set [1] (24 h, read-out: minimum effective dose (MED), DNA synthesis assay); 0.1 µg/mL in data set [3] (5 min); 0.01 µg/mL in data set [3] (24 h).
